Source: the supplement of paper PMC10307832

Legend:
Experiment in all cases: relative viability (nuclei count vs DMSO), 5 days (fraction); higher = more cells survive
Dasatinib + Foretinib = compound: Cc1nc(Nc2ncc(C(=O)Nc3c(C)cccc3Cl)s2)cc(N2CCN(CCO)CC2)n1 [Dasatinib] + COc1cc2c(Oc3ccc(NC(=O)C4(C(=O)Nc5ccc(F)cc5)CC4)cc3F)ccnc2cc1OCCCN1CCOCC1 [Foretinib] (partner 0.25 µM)
Outline: (§1)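 Lung cancer cell lines in 1536-well plates got either a single drug or a fixed anchor-drug dose together with five library-drug doses (not always all listed) in √10 steps, by pin tool, on the day after seeding. Nuclei were counted after 5 days, and relative viability is the treated-to-vehicle ratio of nuclei counts. Values are medians of duplicate plates.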

Dasatinib + Tozasertib = compound: Cc1nc(Nc2ncc(C(=O)Nc3c(C)cccc3Cl)s2)cc(N2CCN(CCO)CC2)n1 [Dasatinib] + Cc1cc(Nc2cc(N3CCN(C)CC3)nc(Sc3ccc(NC(=O)C4CC4)cc3)n2)n[nH]1 [Tozasertib] (partner 0.1 µM)
Outline: as §1

XMD13-2 + Luminespib = compound: C1CC1C(=O)NC2=NNC3=C2C=CC(=C3)C4=CC(=CC=C4)C(=O)NC5CC5 [XMD13-2] + CCNC(=O)c1noc(-c2cc(C(C)C)c(O)cc2O)c1-c1ccc(CN2CCOCC2)cc1 [Luminespib] (partner 0.01 µM)
Outline: as §1

Dasatinib + Alpelisib = compound: Cc1nc(Nc2ncc(C(=O)Nc3c(C)cccc3Cl)s2)cc(N2CCN(CCO)CC2)n1 [Dasatinib] + Cc1nc(NC(=O)N2CCC[C@H]2C(N)=O)sc1-c1ccnc(C(C)(C)C(F)(F)F)c1 [Alpelisib] (partner 2 µM)
Outline: as §1

Q: UMC-11 was tested. Which relative viability (Dasatinib + Foretinib; first compound 0.005 µM) did it give?
A: 0.912

Q: What about the relative viability (Dasatinib + Foretinib; first compound 0.01581 µM) of the same cell line?
A: 0.699

Q: What about the relative viability (Dasatinib + Foretinib; first compound 0.05 µM) of the same cell line?
A: 0.696

Q: And the relative viability (Dasatinib + Foretinib; first compound 0.1581 µM)?
A: 0.379

Q: And the relative viability (Dasatinib + Foretinib; first compound 0.5 µM)?
A: 0.276

Q: And the relative viability (Dasatinib + Tozasertib; first compound 0.005 µM)?
A: 0.196

Q: And the relative viability (Dasatinib + Tozasertib; first compound 0.01581 µM)?
A: 0.203

Q: And the relative viability (Dasatinib + Tozasertib; first compound 0.05 µM)?
A: 0.193

Q: And the relative viability (Dasatinib + Tozasertib; first compound 0.1581 µM)?
A: 0.184

Q: And the relative viability (Dasatinib + Tozasertib; first compound 0.5 µM)?
A: 0.172

Q: And the relative viability (XMD13-2 + Luminespib; first compound 0.05 µM)?
A: 1.11

Q: What about the relative viability (XMD13-2 + Luminespib; first compound 0.1581 µM) of the same cell line?
A: 1.02

Q: What about the relative viability (XMD13-2 + Luminespib; first compound 0.5 µM) of the same cell line?
A: 0.992

Q: And the relative viability (XMD13-2 + Luminespib; first compound 1.581 µM)?
A: 0.961

Q: And the relative viability (XMD13-2 + Luminespib; first compound 5 µM)?
A: 0.974

Q: And the relative viability (Dasatinib + Alpelisib; first compound 0.005 µM)?
A: 0.988

Q: What about the relative viability (Dasatinib + Alpelisib; first compound 0.01581 µM) of the same cell line?
A: 0.768

Q: And the relative viability (Dasatinib + Alpelisib; first compound 0.05 µM)?
A: 0.752

Q: And the relative viability (Dasatinib + Alpelisib; first compound 0.1581 µM)?
A: 0.347

Q: What about the relative viability (Dasatinib + Alpelisib; first compound 0.5 µM) of the same cell line?
A: 0.264
